Data from patent US20050112573A1, “Method of detecting toxic substance” (priority 2001, published 2005).

Tested on: yeast genes (level of expressed mRNA)
Test: DNA chip analysis of expressed mRNA of yeast genes after 2 h culture with a toxic chemical substance
Type: cell-based, Saccharomyces cerevisiae S288C
Conditions: for The level of expressed mRNA in the presence of chemical substance/ (ratio to absence of chemical substance): stress protein genes, DNA chip; for The level of expressed mRNA in the presence of chemical substance/ in its absence, gene YPR184W: yeast gene YPR184W
Method in brief: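 S. cerevisiae S288C in YPD at 25 °C was exposed at log phase for 2 h to a growth-inhibiting, non-lethal concentration of the chemical. Poly(A) mRNA was reverse-transcribed with Cy3- or Cy5-dUTP and hybridized to a whole-genome yeast DNA chip (65 °C, >12 h). Values are fluorescence ratios versus untreated cells.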

For `S=C([S-])NCCNC(=S)[S-].[Zn+2]` [(11), zinc N,N′-ethylenebis(dithiocarbamate)], the “The level of expressed mRNA in the presence of chemical substance/ (in its absence), gene YMR293C” value (yeast gene YMR293C, ratio of DNA chip fluorescence intensity to that without chemical substance) was 0.4, the “The level of expressed mRNA in the presence of chemical substance/The level of expressed mRNA in the absence of chemical substance” value (yeast gene YMR314W) was 1.8 and the “The level of expressed mRNA in the presence of chemical substance/The level of expressed mRNA in the absence of chemical substance” value (yeast gene YNL006W) was 1.1. The “The level of expressed mRNA in the presence of chemical substance/The level of expressed mRNA in the absence of chemical substance” value (yeast gene YNL007C) was 1.3, the “The level of expressed mRNA in the presence of chemical substance/ (in its absence), gene YNL025C” value (yeast gene YNL025C, ratio of DNA chip fluorescence intensity to that without chemical substance) was 1.1 and the “The level of expressed mRNA in the presence of chemical substance/ (ratio to absence of chemical substance)” value (yeast gene YNL064C) was 0.9. The “The level of expressed mRNA in the presence of chemical substance/ (ratio to absence), gene YNL073W” value (yeast gene YNL073W, mitochondria-located protein genes, 2 h culture with chemical) was 1.1, the “The level of expressed mRNA in the presence of chemical substance/The level of expressed mRNA in the absence of chemical substance” value (yeast gene YNL093W) was 1.6 and the “The level of expressed mRNA in the presence of chemical substance/ (in its absence), gene YNL192W” value (yeast gene YNL192W, ratio of DNA chip fluorescence intensity to that without chemical substance) was 1.1. The “The level of expressed mRNA in the presence of chemical substance/The level of expressed mRNA in the absence of chemical substance” value (yeast gene YNL333W) was 2.0, the “The level of expressed mRNA in the presence of chemical substance/The level of expressed mRNA in the absence of chemical substance” value (yeast gene YNR010W) was 1.4 and the “The level of expressed mRNA in the presence of chemical substance/The level of expressed mRNA in the absence of chemical substance” value (yeast gene YNR069C) was 2.5. For the same compound, the “The level of expressed mRNA in the presence of chemical substance/ (in its absence), gene YNR072W” value (yeast gene YNR072W, ratio of DNA chip fluorescence intensity to that without chemical substance) was 1.4, the “The level of expressed mRNA in the presence of chemical substance/ (ratio to absence of chemical substance)” value (yeast gene YNR076W) was 1.4 and the “The level of expressed mRNA in the presence of chemical substance/The level of expressed mRNA in the absence of chemical substance” value (yeast gene YOL013C) was 1.4. For the same compound, the “The level of expressed mRNA in the presence of chemical substance/ (ratio to absence), gene YOL096C” value (yeast gene YOL096C, mitochondria-located protein genes, 2 h culture with chemical) was 1.2, the “The level of expressed mRNA in the presence of chemical substance/ (in its absence), gene YOL096C” value (yeast gene YOL096C, ratio of DNA chip fluorescence intensity to that without chemical substance) was 1.2 and the “The level of expressed mRNA in the presence of chemical substance/ (in its absence), gene YOL108C” value (yeast gene YOL108C, ratio of DNA chip fluorescence intensity to that without chemical substance) was 1.1. For the same compound, the “The level of expressed mRNA in the presence of chemical substance/ (in its absence), gene YOL116W” value (yeast gene YOL116W, ratio of DNA chip fluorescence intensity to that without chemical substance) was 1.0, the “The level of expressed mRNA in the presence of chemical substance/ (ratio to absence of chemical substance)” value (yeast gene YOL161C) was 1.5 and the “The level of expressed mRNA in the presence of chemical substance/The level of expressed mRNA in the absence of chemical substance” value (yeast gene YOL164W) was 1.0. For the same compound, the “The level of expressed mRNA in the presence of chemical substance/ (ratio to absence of chemical substance)” value (yeast gene YOR008C) was 1.0, the “The level of expressed mRNA in the presence of chemical substance/ (ratio to absence of chemical substance)” value (yeast gene YOR009W) was 1.4 and the “The level of expressed mRNA in the presence of chemical substance/ (ratio to absence of chemical substance)” value (yeast gene YOR010C) was 1.2. The “The level of expressed mRNA in the presence of chemical substance/The level of expressed mRNA in the absence of chemical substance” value (yeast gene YOR036W) was 1.3, the “The level of expressed mRNA in the presence of chemical substance/ (in its absence), gene YOR103C” value (yeast gene YOR103C, ratio of DNA chip fluorescence intensity to that without chemical substance) was 1.0 and the “The level of expressed mRNA in the presence of chemical substance/The level of expressed mRNA in the absence of chemical substance” value (yeast gene YOR117W) was 1.2. For the same compound, the “The level of expressed mRNA in the presence of chemical substance/The level of expressed mRNA in the absence of chemical substance” value (yeast gene YOR124C) was 1.2, the “The level of expressed mRNA in the presence of chemical substance/The level of expressed mRNA in the absence of chemical substance” value (yeast gene YOR132W) was 1.3 and the “The level of expressed mRNA in the presence of chemical substance/The level of expressed mRNA in the absence of chemical substance” value (yeast gene YOR157C) was 1.6. The “The level of expressed mRNA in the presence of chemical substance/ (in its absence), gene YOR180C” value (yeast gene YOR180C, ratio of DNA chip fluorescence intensity to that without chemical substance) was 0.6, the “The level of expressed mRNA in the presence of chemical substance/The level of expressed mRNA in the absence of chemical substance” value (yeast gene YOR181W) was 1.0 and the “The level of expressed mRNA in the presence of chemical substance/The level of expressed mRNA in the absence of chemical substance” value (yeast gene YOR185C) was 1.2. The “The level of expressed mRNA in the presence of chemical substance/The level of expressed mRNA in the absence of chemical substance” value (yeast gene YOR198C) was 1.4, the “The level of expressed mRNA in the presence of chemical substance/ (in its absence), gene YOR251C” value (yeast gene YOR251C, ratio of DNA chip fluorescence intensity to that without chemical substance) was 1.0 and the “The level of expressed mRNA in the presence of chemical substance/The level of expressed mRNA in the absence of chemical substance” value (yeast gene YOR259C) was 1.0. For the same compound, the “The level of expressed mRNA in the presence of chemical substance/The level of expressed mRNA in the absence of chemical substance” value (yeast gene YOR261C) was 2.1, the “The level of expressed mRNA in the presence of chemical substance/The level of expressed mRNA in the absence of chemical substance” value (yeast gene YOR288C) was 1.4 and the “The level of expressed mRNA in the presence of chemical substance/ (ratio to absence), gene YOR316C” value (yeast gene YOR316C, mitochondria-located protein genes, 2 h culture with chemical) was 2.4. The “The level of expressed mRNA in the presence of chemical substance/ (in its absence), gene YOR348C” value (yeast gene YOR348C, ratio of DNA chip fluorescence intensity to that without chemical substance) was 1.1, the “The level of expressed mRNA in the presence of chemical substance/The level of expressed mRNA in the absence of chemical substance” value (yeast gene YOR355W) was 1.2 and the “The level of expressed mRNA in the presence of chemical substance/ (in its absence), gene YOR363C” value (yeast gene YOR363C, ratio of DNA chip fluorescence intensity to that without chemical substance) was 1.2. For the same compound, the “The level of expressed mRNA in the presence of chemical substance/The level of expressed mRNA in the absence of chemical substance” value (yeast gene YOR383C) was 1.4, the “The level of expressed mRNA in the presence of chemical substance/ (ratio to absence), gene YPL040C” value (yeast gene YPL040C, mitochondria-located protein genes, 2 h culture with chemical) was 0.9 and the “The level of expressed mRNA in the presence of chemical substance/ (ratio to absence of chemical substance)” value (yeast gene YPL059W) was 1.6. The “The level of expressed mRNA in the presence of chemical substance/The level of expressed mRNA in the absence of chemical substance” value (yeast gene YPL089C) was 0.9, the “The level of expressed mRNA in the presence of chemical substance/ (ratio to absence), gene YPL134C” value (yeast gene YPL134C, mitochondria-located protein genes, 2 h culture with chemical) was 1.7 and the “The level of expressed mRNA in the presence of chemical substance/ (ratio to absence of chemical substance)” value (yeast gene YPL140C) was 0.8. The “The level of expressed mRNA in the presence of chemical substance/ (in its absence), gene YPL148C” value (yeast gene YPL148C, ratio of DNA chip fluorescence intensity to that without chemical substance) was 3.5, the “The level of expressed mRNA in the presence of chemical substance/The level of expressed mRNA in the absence of chemical substance” value (yeast gene YPL149W) was 1.2 and the “The level of expressed mRNA in the presence of chemical substance/The level of expressed mRNA in the absence of chemical substance” value (yeast gene YPL154C) was 1.8. For the same compound, the “The level of expressed mRNA in the presence of chemical substance/ (ratio to absence of chemical substance)” value (yeast gene YPL194W) was 0.9, the “The level of expressed mRNA in the presence of chemical substance/ (ratio to absence of chemical substance)” value (yeast gene YPR005C) was 0.4 and the “The level of expressed mRNA in the presence of chemical substance/The level of expressed mRNA in the absence of chemical substance” value (yeast gene YPR103W) was 0.9. For the same compound, the “The level of expressed mRNA in the presence of chemical substance/The level of expressed mRNA in the absence of chemical substance” value (yeast gene YPR108W) was 1.8, the “The level of expressed mRNA in the presence of chemical substance/ (in its absence), gene YPR165W” value (yeast gene YPR165W, ratio of DNA chip fluorescence intensity to that without chemical substance) was 1.0 and the “The level of expressed mRNA in the presence of chemical substance/ in its absence, gene YPR184W” value (energy system protein genes, 2 h culture with the chemical, ratio to control without chemical) was 3.6. The “The level of expressed mRNA in the presence of chemical substance/ in its absence, gene YPR184W” value (ratio of DNA chip fluorescence intensity to that without chemical substance) was 3.6.
